Holding throughout (type): biochemical
In one assay the target is PAK4 (Homo sapiens, UniProt O96013). The assay can be described thus: In vitro PAK inhibition assay (Z'-LYTE, SelectScreen), PAK4. The method, then:
(§1) Compounds are screened in 1% DMSO (final) in the well. For 10 point titrations, 3-fold serial dilutions are conducted. All Peptide/Kinase Mixtures are diluted to a 2× working concentration in the appropriate Kinase Buffer
The 2×PAK-4/Ser/Thr 20 mixture is prepared in 50 mM HEPES pH 7.5, 0.01% BRIJ-35, 10 mM MgCl2, 1 mM EGTA. The final 10 μL Kinase Reaction consists of 0.1-0.75 ng PAK-4 and 2 μM Ser/Thr 20 in 50 mM HEPES pH 7.5, 0.01% BRIJ-35, 10 mM MgCl2, 1 mM EGTA. After the 1 hour Kinase Reaction incubation, 5 μL of a 1:256 dilution of Development Reagent A is added.
(§2) 1. Add the following solutions to a well in a 384-well plate: • 2.5 μL of 4× Test Compound OR (100 nL 100× Test Compound plus 2.4 μL kinase buffer) • 5 μL of 2× Peptide/Kinase (PAK) Mixture • 2.5 μL of 4×ATP Solution
(§3) 3. Incubate the PAK Kinase Reaction at room temperature for 60-minutes
(§4) 4. Add 5 μL of Development Reagent Solution to each well
(§5) 6. Incubate the Development Reaction for 60-minutes
(§6) 7. Determine the fluorescence using a fluorescence plate reader
SelectScreen® Kinase Profiling Service uses XLfit from IDBS. The dose response curve is curve fit to model number 205 (sigmoidal dose-response model).
The table below provides specifications and data around each kinase. The representative IC50 value with a known inhibitor for each kinase was determined at the ATP bin nearest to the ATP Km app.

For the next assay, the target named is PAK3 (Homo sapiens, UniProt O75914). The assay can be described thus: In vitro PAK inhibition assay (Z'-LYTE, SelectScreen), PAK3. The settings on record: read-out: PAK3 IC50. On the procedure:
as §1
The 2×PAK3/Ser/Thr 20 mixture is prepared in 50 mM HEPES pH 7.5, 0.01% BRIJ-35, 10 mM MgCl2, 1 mM EGTA.
as §2, §3, §4, §5, §6
(§7) SelectScreen® Kinase Profiling Service uses XLfit from IDBS.
(§8) The representative IC50 value with a known inhibitor for each kinase was determined at the ATP bin nearest to the ATP Km app.

The target of another assay is PAK1 (Homo sapiens, UniProt Q13153). The experiment in a line: In vitro PAK inhibition assay (Z'-LYTE, SelectScreen), PAK1. The settings on record: read-out: PAK1 IC50. On the procedure:
as §1
The 2×PAK1/Ser/Thr 19 mixture is prepared in 50 mM HEPES pH 7.5, 0.01% BRIJ-35, 10 mM MgCl2, 1 mM EGTA.
as §2, §3, §4, §5, §6, §7, §8

The target in the next assay is PAK2 (PAK65) (Homo sapiens, UniProt Q13177). The experiment in a line: In vitro PAK inhibition assay (Z'-LYTE, SelectScreen), PAK2. The settings on record: read-out: PAK2 IC50. On the procedure: as §1
The 2×PAK2 (PAK65)/Ser/Thr 20 mixture is prepared in 50 mM HEPES pH 7.5, 0.01% BRIJ-35, 10 mM MgCl2, 1 mM EGTA. The final 10 μL Kinase Reaction consists of 0.29-6 ng PAK2 (PAK65) and 2 μM Ser/Thr 20 in 50 mM HEPES pH 7.5, 0.01% BRIJ-35, 10 mM MgCl2, 1 mM EGTA.
as §2, §3, §4, §5, §6, §7, §8

pIC50: −log10 of the molar value.

Chain of PAK4 (O96013 whole entry): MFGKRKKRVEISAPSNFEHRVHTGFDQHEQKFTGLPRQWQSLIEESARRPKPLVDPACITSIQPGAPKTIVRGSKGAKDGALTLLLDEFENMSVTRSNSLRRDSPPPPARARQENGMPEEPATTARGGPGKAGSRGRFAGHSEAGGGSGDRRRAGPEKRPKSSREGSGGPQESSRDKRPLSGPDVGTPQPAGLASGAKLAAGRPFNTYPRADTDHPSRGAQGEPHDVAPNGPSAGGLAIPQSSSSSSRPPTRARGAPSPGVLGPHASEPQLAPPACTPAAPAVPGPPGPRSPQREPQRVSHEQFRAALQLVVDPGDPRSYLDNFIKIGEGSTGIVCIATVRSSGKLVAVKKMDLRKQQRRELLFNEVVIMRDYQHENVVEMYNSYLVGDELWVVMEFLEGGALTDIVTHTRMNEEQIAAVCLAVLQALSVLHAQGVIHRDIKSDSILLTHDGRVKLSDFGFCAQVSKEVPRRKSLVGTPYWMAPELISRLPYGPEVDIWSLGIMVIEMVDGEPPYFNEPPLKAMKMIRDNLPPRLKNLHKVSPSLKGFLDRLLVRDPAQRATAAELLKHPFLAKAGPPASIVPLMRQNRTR
Chain of PAK1 (Q13153 whole entry): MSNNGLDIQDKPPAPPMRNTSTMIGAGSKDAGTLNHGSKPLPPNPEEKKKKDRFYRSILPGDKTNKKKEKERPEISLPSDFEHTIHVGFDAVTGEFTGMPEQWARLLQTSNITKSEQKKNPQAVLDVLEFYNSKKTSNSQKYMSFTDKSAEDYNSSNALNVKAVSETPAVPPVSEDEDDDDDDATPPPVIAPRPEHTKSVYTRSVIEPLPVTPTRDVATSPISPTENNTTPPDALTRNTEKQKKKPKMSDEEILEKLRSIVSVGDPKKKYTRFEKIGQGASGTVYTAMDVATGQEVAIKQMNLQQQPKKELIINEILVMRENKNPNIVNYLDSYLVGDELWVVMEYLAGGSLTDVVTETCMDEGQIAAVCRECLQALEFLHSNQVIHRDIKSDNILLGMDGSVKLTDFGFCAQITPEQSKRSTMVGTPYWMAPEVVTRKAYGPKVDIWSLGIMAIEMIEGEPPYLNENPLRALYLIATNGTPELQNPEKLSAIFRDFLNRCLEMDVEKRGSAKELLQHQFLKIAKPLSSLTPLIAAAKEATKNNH
Chain of PAK3 (O75914 1-544 isoform O75914-2): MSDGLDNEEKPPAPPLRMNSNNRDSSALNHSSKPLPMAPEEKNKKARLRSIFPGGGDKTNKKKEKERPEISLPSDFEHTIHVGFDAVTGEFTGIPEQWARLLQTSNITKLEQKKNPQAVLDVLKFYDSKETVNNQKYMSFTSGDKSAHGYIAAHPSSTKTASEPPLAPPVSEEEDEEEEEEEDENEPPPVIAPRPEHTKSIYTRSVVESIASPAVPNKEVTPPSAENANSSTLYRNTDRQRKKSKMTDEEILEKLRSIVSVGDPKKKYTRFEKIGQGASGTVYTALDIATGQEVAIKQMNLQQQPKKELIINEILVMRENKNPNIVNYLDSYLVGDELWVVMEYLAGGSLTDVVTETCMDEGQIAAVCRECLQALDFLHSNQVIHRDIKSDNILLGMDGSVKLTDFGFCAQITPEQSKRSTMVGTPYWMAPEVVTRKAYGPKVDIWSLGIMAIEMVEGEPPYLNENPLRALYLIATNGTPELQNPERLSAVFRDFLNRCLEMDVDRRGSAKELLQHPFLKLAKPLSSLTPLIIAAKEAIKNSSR
Chain of PAK2 (PAK65) (Q13177 whole entry): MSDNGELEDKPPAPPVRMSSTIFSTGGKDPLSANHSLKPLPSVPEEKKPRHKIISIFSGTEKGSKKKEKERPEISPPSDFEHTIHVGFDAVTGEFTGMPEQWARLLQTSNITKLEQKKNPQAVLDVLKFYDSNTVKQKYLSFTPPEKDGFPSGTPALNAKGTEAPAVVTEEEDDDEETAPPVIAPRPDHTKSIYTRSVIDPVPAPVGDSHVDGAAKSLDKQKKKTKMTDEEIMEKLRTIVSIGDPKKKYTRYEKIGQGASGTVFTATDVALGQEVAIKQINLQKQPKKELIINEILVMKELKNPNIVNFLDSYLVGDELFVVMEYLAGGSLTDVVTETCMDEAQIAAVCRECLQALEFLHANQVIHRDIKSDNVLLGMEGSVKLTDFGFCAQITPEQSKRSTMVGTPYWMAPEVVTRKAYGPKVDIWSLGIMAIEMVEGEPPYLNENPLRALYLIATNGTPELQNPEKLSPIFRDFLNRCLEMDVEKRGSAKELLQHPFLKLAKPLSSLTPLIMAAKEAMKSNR

Broadly, the pIC50 is −log10 of the IC50, conventionally taken in molar units. Regarding `CCn1c(=O)c(-c2ccc(-c3nccnc3C)cc2Cl)cc2cnc(NC3CCCOC3)nc21` (stereo not drawn) [Example 17], the pIC50 is less than 5.30 against PAK4, 6.30 to 7.30 on PAK3, 6.30 to 7.30 at PAK1 and 6.30 to 7.30 at PAK2 (PAK65).
On to `Cc1cncc(-c2ccc(-c3cc4cnc(N[C@@H]5CCOC5)nc4n(CCCN)c3=O)c(Cl)c2)n1` [Example 97], for which the pIC50 against PAK4 is less than 5.30; on PAK3 it was 6.30 to 7.30; on PAK1, 6.30 to 7.30; on PAK2 (PAK65) it was greater than 7.30.
Regarding `CCn1c(=O)c(-c2ccc(-c3cnccn3)cc2Cl)cc2cnc(N[C@@H]3CCOC3)nc21` [Example 60], the pIC50 on PAK4 is less than 5.30; on PAK3 it was 5.30 to 6.30; at PAK1 it was 6.30 to 7.30; at PAK2 (PAK65), 6.30 to 7.30.
With `COCCCn1c(=O)c(-c2ccc(-c3cncc(C)n3)cc2Cl)cc2cnc(N[C@@H]3CCOC3)nc21` [Example 64], the pIC50 on PAK4 was less than 5.30; on PAK3 it was 6.30 to 7.30; on PAK1, greater than 7.30; on PAK2 (PAK65) it was greater than 7.30.
Take `CCn1c(=O)c(-c2ccc(-c3cncc(C)n3)cc2Cl)cc2cnc(NC3CCC(CCN(C)C)CC3)nc21` (stereo not drawn) [Example 70]: the pIC50 is less than 5.30 against PAK4, 6.30 to 7.30 on PAK3, greater than 7.30 at PAK1 and greater than 7.30 on PAK2 (PAK65).
With `CCn1c(=O)c(-c2ccc(-c3nccnc3C)cc2Cl)cc2cnc(N[C@@H]3CCOC3)nc21` [Example 58], the negative-log IC50 (pIC50) against PAK4 was less than 5.30; at PAK3 it was 5.30 to 6.30; at PAK1, 6.30 to 7.30; at PAK2 (PAK65) it was 6.30 to 7.30.
Take `CCn1c(=O)c(-c2ccc(-c3ccncc3C)cc2Cl)cc2cnc(NC3CCOCC3)nc21` [Example 46]: the pIC50 against PAK4 is less than 5.30; on PAK3, 5.30 to 6.30; at PAK1, 5.30 to 6.30; on PAK2 (PAK65), 5.30 to 6.30.
As for `CCNc1ncc2cc(-c3ccc(-c4cncc(C)n4)cc3Cl)c(=O)n([C@H]3CC[C@H](N)CC3)c2n1` [Example 117], the pIC50 was 5.30 to 6.30 against PAK4, greater than 7.30 on PAK3, greater than 7.30 at PAK1 and greater than 7.30 on PAK2 (PAK65).
In the case of `CCn1c(=O)c(-c2ccc(-c3cncc(C)n3)cc2Cl)cc2cnc(NC3CCOCC3)nc21` [Example 7], the pIC50 was less than 5.30 on PAK4, 6.30 to 7.30 on PAK3, greater than 7.30 on PAK1 and greater than 7.30 at PAK2 (PAK65).
In the case of `CCn1c(=O)c(-c2ccc(-c3cncc(C)n3)cc2Cl)cc2cnc(NC3CCOC(C)(C)C3)nc21` (stereo not drawn) [Example 31], the pIC50 was less than 5.30 on PAK4, 6.30 to 7.30 at PAK3, 6.30 to 7.30 at PAK1 and 6.30 to 7.30 at PAK2 (PAK65).
`CCn1c(=O)c(-c2ccc(-c3nccnc3C)cc2Cl)cc2cnc(NC3CCS(=O)(=O)CC3)nc21` [Example 75]: the pIC50 on PAK4 is less than 5.30; at PAK3, 5.30 to 6.30; on PAK1, 6.30 to 7.30; on PAK2 (PAK65), 6.30 to 7.30.
As for `CCn1c(=O)c(-c2ccc(-c3nccnc3C)cc2Cl)cc2cnc(NC3CCOC3)nc21` (stereo not drawn) [Example 15], the pIC50 against PAK4 was less than 5.30; on PAK3 it was 6.30 to 7.30; on PAK1, 6.30 to 7.30; at PAK2 (PAK65), 6.30 to 7.30.
Turning to `CCn1c(=O)c(-c2ccc(-c3nccnc3C)cc2Cl)cc2cnc(NC3CCOCC3)nc21` [Example 2], the pIC50 at PAK4 was less than 5.30; on PAK3, 6.30 to 7.30; at PAK1, 6.30 to 7.30; at PAK2 (PAK65), 6.30 to 7.30.
With `CCn1c(=O)c(-c2ccc(-c3cccnc3F)cc2Cl)cc2cnc(N[C@@H]3CCOC3)nc21` [Example 40], the pIC50 at PAK4 was less than 5.30; on PAK3, 6.30 to 7.30; at PAK1, greater than 7.30; on PAK2 (PAK65), 6.30 to 7.30.
Take `CCn1c(=O)c(-c2ccc(-c3ccn(C)n3)cc2Cl)cc2cnc(N[C@@H]3CCOC3)nc21` [Example 63]: the pIC50 against PAK4 is less than 5.30; on PAK3, 5.30 to 6.30; at PAK1, 6.30 to 7.30; at PAK2 (PAK65), 6.30 to 7.30.
`CCn1c(=O)c(-c2ccc(-c3nccnc3C)cc2Cl)cc2cnc(NCCC3CCNCC3)nc21` [Example 136]: the pIC50 at PAK4 is less than 5.30; at PAK3, 6.30 to 7.30; at PAK1, greater than 7.30; on PAK2 (PAK65), greater than 7.30.
Consider `CCn1c(=O)c(-c2ccc(-c3cncc(C)n3)cc2Cl)cc2cnc(NCCOCCN)nc21` [Example 128], for which the pIC50 was less than 5.30 against PAK4, 6.30 to 7.30 at PAK3, 6.30 to 7.30 at PAK1 and 6.30 to 7.30 on PAK2 (PAK65).
Regarding `CCn1c(=O)c(-c2ccc(-c3cnc(C)cn3)cc2Cl)cc2cnc(N[C@@H]3CCOC3)nc21` [Example 50], the pIC50 against PAK4 is less than 5.30; at PAK3, 5.30 to 6.30; at PAK1, 6.30 to 7.30; at PAK2 (PAK65), 6.30 to 7.30.
As for `Cc1cncc(-c2ccc(-c3cc4cnc(N[C@@H]5CCOC5)nc4n([C@H]4CC[C@H](N)CC4)c3=O)c(Cl)c2)n1` [Example 109], the pIC50 on PAK4 was less than 5.30; at PAK3 it was 6.30 to 7.30; on PAK1 it was greater than 7.30; at PAK2 (PAK65), greater than 7.30.
As for `O=c1c(-c2ccc(-c3ccncn3)cc2Cl)cc2cnc(NC3CCOCC3)nc2n1Cc1ccccc1C(F)(F)F` [Example 23], the pIC50 at PAK4 was less than 5.30; at PAK3 it was 6.30 to 7.30; on PAK1, 6.30 to 7.30; at PAK2 (PAK65) it was 6.30 to 7.30.
For the compound `CCn1c(=O)c(-c2ccc(-c3cccnc3F)cc2Cl)cc2cnc(N[C@H]3CCOC3)nc21` [Example 41], the pIC50 against PAK4 is less than 5.30; at PAK3, 6.30 to 7.30; at PAK1, greater than 7.30; at PAK2 (PAK65) it was 6.30 to 7.30.
`CCn1c(=O)c(-c2ccc(-c3cnccc3C)cc2Cl)cc2cnc(NC3CCOCC3)nc21` [Example 47]: the pIC50 against PAK4 is less than 5.30; on PAK3, 6.30 to 7.30; on PAK1 it was 6.30 to 7.30; at PAK2 (PAK65) it was 5.30 to 6.30.
With `CCn1c(=O)c(-c2ccc(-c3nccnc3C)cc2Cl)cc2cnc(NC3CCNC3)nc21` (stereo not drawn) [Example 83], the pIC50 on PAK4 is less than 5.30; at PAK3, 5.30 to 6.30; at PAK1, 6.30 to 7.30; on PAK2 (PAK65), 6.30 to 7.30.
`CCn1c(=O)c(-c2ccc(-c3ccnc(C)n3)cc2Cl)cc2cnc(NC3CCOCC3)nc21` [Example 8]: the pIC50 against PAK4 is less than 5.30; at PAK3, 6.30 to 7.30; on PAK1 it was 6.30 to 7.30; on PAK2 (PAK65) it was 6.30 to 7.30.
Consider `Cc1nccnc1-c1ccc(-c2cc3cnc(N[C@@H]4CCOC4)nc3n(Cc3ccccn3)c2=O)c(Cl)c1` [Example 123], for which the pIC50 was less than 5.30 on PAK4, 6.30 to 7.30 on PAK3, 6.30 to 7.30 at PAK1 and greater than 7.30 on PAK2 (PAK65).
Regarding `CCn1c(=O)c(-c2ccc(-c3cccnc3O)cc2Cl)cc2cnc(NC3CCOCC3)nc21` [Example 48], the negative-log IC50 (pIC50) was less than 5.30 at PAK4, 6.30 to 7.30 on PAK3, 6.30 to 7.30 at PAK1 and 6.30 to 7.30 at PAK2 (PAK65).
As to `Cc1cncc(-c2ccc(-c3cc4cnc(N[C@H]5CCOC5)nc4n(CCCN)c3=O)c(Cl)c2)n1` [Example 98], the pIC50 was less than 5.30 against PAK4, greater than 7.30 at PAK3, greater than 7.30 on PAK1 and greater than 7.30 on PAK2 (PAK65).
In the case of `CCn1c(=O)c(-c2ccc(-c3cccnc3)cc2Cl)cc2cnc(NC3CCOCC3)nc21` [Example 44], the negative-log IC50 (pIC50) at PAK4 is less than 5.30; at PAK3 it was 6.30 to 7.30; on PAK1, 6.30 to 7.30; on PAK2 (PAK65) it was 6.30 to 7.30.
For the compound `Cc1cncc(-c2ccc(-c3cc4cnc(NC5CCOCC5)nc4n(Cc4ccccc4F)c3=O)c(Cl)c2)n1` [Example 36], the pIC50 was less than 5.30 at PAK4, 6.30 to 7.30 at PAK3, 6.30 to 7.30 at PAK1 and 6.30 to 7.30 on PAK2 (PAK65).
On to `CCn1c(=O)c(-c2cc(C)c(-c3cncc(C)n3)cc2Cl)cc2cnc(N[C@H]3CCOC3)nc21` [Example 72], for which the negative-log IC50 (pIC50) against PAK4 is less than 5.30; on PAK3, 6.30 to 7.30; on PAK1, greater than 7.30; at PAK2 (PAK65), greater than 7.30.

For the origin of these results see patent US20130116263A1, “PAK INHIBITORS FOR THE TREATMENT OF CELL PROLIFERATIVE DISORDERS” (AFRAXIS, INC., priority 2011, published 2013).
